SMILES strings stand for the structures.

In this test the test system is HT29 cells. The test is described as follows: Inhibition of cell necrosis (CCK8 method), induced programmed necrosis of HT29 cells. In kind it is cell-based. As to conditions: Homo sapiens, HT-29; rescue from necrosis induced by TNF-α 20 ng/mL, AT-406 1 μM, Z-VAD-FMK 20 μM; 16-20 hours; CCK-8, OD 450 nm. In short, it runs like this:
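Rescue from programmed necrosis was scored by CCK-8 absorbance at 450 nm after 16-20 h of TNF-α (20 ng/mL), AT-406 (1 μM) and Z-VAD-FMK (20 μM) at 37 °C, 5% CO2. HT29 cells had received compound 30 min earlier across nine 4-fold dilutions (top 25000 nM final). IC50 came from % inhibition relative to uninduced and induced-only wells.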
On the technique in general: Tetrazolium assays rely on reduction of a dye to a coloured formazan, in cell work by metabolically active cells.
In turn, `CC(C)(O)CCCCOc1ccc(Cl)c(-c2ccnc(NC(=O)c3nnc(Cc4ccccc4F)[nH]3)c2)c1` [Example 368, 5-(2-fluorobenzyl)-N-(4-(2-chloro-5-((5-hydroxyl-5-methylhexyl)oxy)phenyl)pyridin-2-yl)-4H-1,2,4-triazole-3-carboxamide] displayed an IC50 of at most 100 nM.

In turn, `CC(C)(O)CCCCOc1ccc(Cl)c(-c2ccnc(NC(=O)c3nnc(CC4CCCC4)[nH]3)c2)c1` [Example 369, N-(4-(2-chloro-5-((5-hydroxyl-5-methylhexyl)oxy)phenyl)pyridin-2-yl)-5-(cyclopentylmethyl)-4H-1,2,4-triazole-3-carboxamide] had a concentration for half-maximal inhibition (IC50) of at most 100 nM.

`CC(C)(O)CCCCOc1ccc(Cl)c(-c2ccnc(NC(=O)c3nnc(CC4CCCCC4)[nH]3)c2)c1` [Example 370, N-(4-(2-chloro-5-((5-hydroxyl-5-methylhexyl)oxy)phenyl)pyridin-2-yl)-5-(cyclohexylmethyl)-4H-1,2,4-triazole-3-carboxamide]: the IC50 was at most 100 nM.

As for `O=C(Nc1cc(-c2cc(OCCCCO)ccc2Cl)ccn1)c1nnc(Cc2ccccc2)[nH]1` [Example 371, 5-benzyl-N-(4-(2-chloro-5-(4-hydroxybutoxy)phenyl)pyridin-2-yl)-4H-1,2,4-triazole-3-carboxamide], the IC50 is at most 100 nM.

On to `O=C(Nc1cc(-c2cc(OCCCCO)ccc2Cl)ccn1)c1nnc(Cc2ccccc2F)[nH]1` [Example 372, 5-(2-fluorobenzyl)-N-(4-(2-chloro-5-(4-hydroxybutoxy)phenyl)pyridin-2-yl)-4H-1,2,4-triazole-3-carboxamide], for which the half-maximal inhibitory concentration (IC50) is at most 100 nM.

For the molecule `O=C(Nc1cc(-c2cc(OCCCCO)ccc2Cl)ccn1)c1nnc(CC2CCCC2)[nH]1` [Example 373, N-(4-(2-chloro-5-(4-hydroxybutoxy)phenyl)pyridin-2-yl)-5-(cyclopentylmethyl)-4H-1,2,4-triazole-3-carboxamide], the IC50 is at most 100 nM.

In turn, `O=C(Nc1cc(-c2cc(OCCCCO)ccc2Cl)ccn1)c1nnc(CC2CCCCC2)[nH]1` [Example 374, N-(4-(2-chloro-5-(4-hydroxybutoxy)phenyl)pyridin-2-yl)-5-(cyclohexylmethyl)-4H-1,2,4-triazole-3-carboxamide] had a half-maximal inhibitory concentration (IC50) of at most 100 nM.

Take `O=C(Nc1cc(-c2cc(OCCCCCO)ccc2Cl)ccn1)c1nnc(Cc2ccccc2)[nH]1` [Example 375, 5-benzyl-N-(4-(2-chloro-5-((5-hydroxypentyl)oxy)phenyl)pyridin-2-yl)-4H-1,2,4-triazole-3-carboxamide]: the IC50 was at most 100 nM.

The molecule `O=C(Nc1cc(-c2cc(OCCCCCO)ccc2Cl)ccn1)c1nnc(Cc2ccccc2F)[nH]1` [Example 376, 5-(2-fluorobenzyl)-N-(4-(2-chloro-5-((5-hydroxypentyl)oxy)phenyl)pyridin-2-yl)-4H-1,2,4-triazole-3-carboxamide] came in with an IC50 of at most 100 nM.

For the molecule `O=C(Nc1cc(-c2cc(OCCCCCO)ccc2Cl)ccn1)c1nnc(CC2CCCC2)[nH]1` [Example 377, N-(4-(2-chloro-5-((5-hydroxypentyl)oxy)phenyl)pyridin-2-yl)-5-(cyclopentylmethyl)-4H-1,2,4-triazole-3-carboxamide], the IC50 was at most 100 nM.

The molecule `O=C(Nc1cc(-c2cc(OCCCCCO)ccc2Cl)ccn1)c1nnc(CC2CCCCC2)[nH]1` [Example 378, N-(4-(2-chloro-5-((5-hydroxypentyl)oxy)phenyl)pyridin-2-yl)-5-(cyclohexylmethyl)-4H-1,2,4-triazole-3-carboxamide] yielded a 50% inhibitory concentration (IC50) of at most 100 nM.

Regarding `COCCOc1ccc(Cl)c(-c2ccnc(NC(=O)c3nnc(Cc4ccccc4)[nH]3)c2)c1` [Example 379, 5-benzyl-N-(4-(2-chloro-5-(2-methoxyethoxy)phenyl)pyridin-2-yl)-4H-1,2,4-triazole-3-carboxamide], the IC50 lay in the range of 100 to 1000 nM.

The molecule `COCCOc1ccc(Cl)c(-c2ccnc(NC(=O)c3nnc(Cc4ccccc4F)[nH]3)c2)c1` [Example 380, 5-(2-fluorobenzyl)-N-(4-(2-chloro-5-(2-methoxyethoxy)phenyl)pyridin-2-yl)-4H-1,2,4-triazole-3-carboxamide] displayed an IC50 of at most 100 nM.

Usually IC50 stands for the point on the concentration scale where inhibition reaches its midpoint. A higher IC50 goes with lower potency.

The values are drawn from US12435060B2, “Acylamino bridged heterocyclic compound, and composition and application thereof” (BEIJING SCITECH-MQ PHARMACEUTICALS LIMITED, priority 2019, dated 2025).
